Experimental data: patent US20250042894A1, “PROTEIN TYROSINE PHOSPHATASE INHIBITORS AND METHODS OF USE THEREOF” (Calico Life Sciences LLC, priority 2021, published 2025)
Read-outs that look alike come from different tables or passages of the source. Values belong to the compound of their own block, whether it stands above or below them.

Assays:
[1] = target: T1, His tagged PTPN2 (TC45) protein (Homo sapiens, UniProt P17706); test: Mobility Shift Assay (MSA) for PTPN2 inhibitors; type: biochemical; conditions: for Thiochromane x-fold>potency biochemical: PTPN2 MSA IC50 of chromane comparator over thiochromane
T1 construct: His; made in house
T1 sequence (P17706 1-387 isoform P17706-2): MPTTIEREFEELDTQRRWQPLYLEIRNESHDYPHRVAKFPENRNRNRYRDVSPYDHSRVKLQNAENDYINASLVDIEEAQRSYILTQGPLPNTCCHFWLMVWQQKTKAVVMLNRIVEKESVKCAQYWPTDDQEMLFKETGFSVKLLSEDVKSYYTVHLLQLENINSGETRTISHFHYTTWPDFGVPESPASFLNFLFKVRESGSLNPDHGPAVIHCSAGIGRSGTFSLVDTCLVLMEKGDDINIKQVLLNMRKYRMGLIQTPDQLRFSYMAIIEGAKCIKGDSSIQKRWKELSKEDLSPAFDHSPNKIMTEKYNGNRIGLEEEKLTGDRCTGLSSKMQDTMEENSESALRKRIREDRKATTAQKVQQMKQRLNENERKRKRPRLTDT
Protocol: Example 43: Mobility Shift Assay (MSA) Used to Determine Potency of PTPN2 Inhibitors
Compound activity was determined using in house His tagged PTPN2 (TC45) protein (SEQ ID NO: 1) in an in vitro enzymatic reaction. The enzymatic assay used to determine activity was a mobility shift assay using a LabChip EZ Reader by Caliper Life Sciences. The enzymatic reaction was carried out in assay buffer (50 mM HEPES pH 7.5, 1 mM EGTA, 10 mM EDTA, 0.01% Tween® 20, and 2 mM DTT). The compounds were dispensed on a white 384 well ProxiPlate™ (PerkinElmer Catalog #6008289) plate using the Labcyte Echo at varying concentrations (12 point, 1:3 dilution). The enzyme (at 0.5 nM) was incubated with compound for 10 minutes at room temperature. Thereafter, the substrate (phosphorylated insulin receptor probe sequence: ((OG488)-(NH—CH2—CH2—O—CH2—CH2—O—CH2—CO)-T-R-D-I—(PY)-E-T-D-Y—Y—R—K—K—NH2) (SEQ ID NO: 2) was added at 2 μM to the plates and incubated for another 10 minutes at room temperature. Finally, a quench solution (water and 4-bromo-3-(2-oxo-2-propoxyethoxy)-5-(3-{[1-(phenylmethanesulfonyl)piperidin-4-yl]amino}phenyl)thiophene-2-carboxylic acid) was added to the plates, which were then run on the EZ Reader (excitation 488 nm, emission 530 nm) to measure % conversion (the amount of phosphorylated substrate which was de-phosphorylated by PTPN2). […] The % inhibition was then used to calculate the IC50 values.

[2] = target: T2, His tagged full-length PTPN1 protein (Homo sapiens, UniProt P18031); test: Mobility Shift Assay (MSA) for PTPN1 inhibitors; type: biochemical; conditions: enzyme 0.5 nM, substrate 2 μM, 10 minutes preincubation at room temperature
T2 construct: His; made in house
T2 sequence (P18031 1-435): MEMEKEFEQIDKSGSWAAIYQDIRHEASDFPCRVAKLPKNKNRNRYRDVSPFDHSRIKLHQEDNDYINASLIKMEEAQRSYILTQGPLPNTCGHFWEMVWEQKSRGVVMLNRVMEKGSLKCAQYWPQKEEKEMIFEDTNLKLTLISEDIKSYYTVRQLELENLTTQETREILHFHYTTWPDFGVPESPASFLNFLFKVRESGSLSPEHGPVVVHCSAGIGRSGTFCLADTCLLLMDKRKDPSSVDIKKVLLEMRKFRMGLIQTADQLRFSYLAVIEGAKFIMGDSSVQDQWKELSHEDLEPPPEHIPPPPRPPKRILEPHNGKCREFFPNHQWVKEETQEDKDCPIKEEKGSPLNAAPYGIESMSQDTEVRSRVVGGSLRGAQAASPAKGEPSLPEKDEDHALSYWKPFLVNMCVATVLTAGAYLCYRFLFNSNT
Protocol: Example 44: Mobility Shift Assay (MSA) Used to Determine Potency of PTPN1 Inhibitors
Compound activity was determined using in house His tagged full-length PTPN1 protein (SEQ ID NO: 3) in an in vitro enzymatic reaction. The enzymatic assay used to determine activity is a mobility shift assay using a LabChip EZ Reader by Caliper Life Sciences. The enzymatic reaction was carried out in assay buffer (50 mM HEPES pH 7.5, 1 mM EGTA, 10 mM EDTA, 0.010% Tween® 20, and 2 mM DTT). The compounds were dispensed on a white 384 well ProxiPlate™ (PerkinElmer Cat #6008289) plate using a Labcyte Echo® liquid handler at varying concentrations (12 point, 1:3 dilution). The enzyme (at 0.5 nM) was incubated with compound for 10 minutes at room temperature. Thereafter, the substrate (phosphorylated insulin receptor probe sequence: ((OG488)-(NH—CH2—CH2—O—CH2—CH2—O—CH2—CO)-T-R-D-I—(PY)-E-T-D-Y—Y—R—K—K—NH2) (SEQ ID NO: 2) was added at 2 μM to the plates and incubated for another 10 minutes at room temperature. Finally, a quench solution (water and 4-bromo-3-(2-oxo-2-propoxyethoxy)-5-(3-{[1-(phenylmethanesulfonyl)piperidin-4-yl]amino}phenyl)thiophene-2-carboxylic acid) was added to the plates, which were then run on the EZ Reader (excitation 488 nm, emission 530 nm) to measure % conversion (the amount of phosphorylated substrate which was de-phosphorylated by PTPN1). […] The % inhibition was then used to calculate the IC50 values.

[3] = system: IFNγ-induced STAT1 phosphorylation (pSTAT1) in B16F10 cells; test: B16F10 Phospho-STAT1 HTRF proximal pharmacodynamic (PD) assay; type: cell-based, murine; conditions: for EC50: B16-F10; for Thiochromane x-fold>potency cellular: pSTAT1 EC50 of chromane comparator over thiochromane
Protocol: Example 45: B16F10 (Murine Melanoma Cells) Phospho-STAT1 HTRF Proximal Pharmacodynamic (PD) Assay
B16F10 cells were grown and maintained in high glucose DMEM (Gibco, Catalog #11965-092, Dun Laoghaire Co Dublin) supplemented with 10% fetal bovine serum (Gibco, Catalog #10082-139, Dun Laoghaire Co Dublin). The cells were pelleted and resuspended in high glucose DMEM without phenol red (Gibco, Catalog #11054-020, Dun Laoghaire Co Dublin), supplemented with 10% fetal bovine serum and plated in a 384 well Corning plate (product #3765, Corning, NY) at 11,000 cells per well in a volume of 20 μL. The cells were dosed with the compounds of interest using an Echo Liquid Handler (Beckman Coulter, Brea, CA) at 50 μM top dose with 3-fold dilutions down to 0.002679 μM for a 10-point dose response. The plate was incubated for 3 hours at 37° C. and subsequently treated with recombinant mouse IFNγ (R&D Systems, Catalog #485-MI, Minneapolis, MN; 100 nM final concentration) for 10 minutes at 37° C. to induce STAT1 phosphorylation followed by 3.3 μM staurosporine treatment for 1 hour at 37° C. to terminate phosphorylation. Media was then aspirated and 20 μL of 1× lysis buffer/blocking reagent (Cisbio Phospho-STAT1 kit, part #63ADK026PEH, Bedford, MA) was added. The plate was placed on a plate shaker for 30 minutes at room temperature, sealed, and stored at −80° C. until needed. To thaw, the plate was placed on shaker at room temperature until completely thawed while the antibody master mix was made (1:40 Phospho-STAT1 Eu Cryptate antibody, 1:40 Phospho-STAT1 d2 antibody, with the detection buffer; Cisbio Phospho-STAT1 kit, part #63ADK026PEH, Bedford, MA). The antibody master mix was then dispensed at 4 μL per well into a 384 ProxiPlate Plus (PerkinElmer, part #6008289, Waltham, MA) and 16 μL of lysate was added from the Corning plate to the Proxiplate using a VIAFLO 384 (INTEGRA). The plate was incubated for 3 hours at room temperature and read on an EnVision® (Perkin Elmer) plate reader with laser excitation at 335 nm and emission at 665 nm. Dotmatics Studies (Bishop's Stortford, UK) was utilized to generate all dose-response curves and calculate EC50s and are shown in Table 2.

[4] = enzyme 0.5 nM, substrate 2 μM, 10 minutes preincubation at room temperature
[5] = Table 2, 3 hours compound, then mouse IFNγ 100 nM 10 minutes, top dose 50 μM, read-out: B16F10 IFNγ Induced pSTAT1 EC50
[6] = Mus musculus, Table 3, B16F10 cells, IFNγ-induced, thiochromanes (X = S) and chromane comparators (X = O), read-out: pSTAT1 EC50
[7] = Table 3, thiochromanes (X = S) and chromane comparators (X = O)

IC50 [2]: 10 to 100 nM
EC50 [3, 5]: 1.48 µM
EC50 [3, 6]: 1.48 µM
SMILES: O=C1CN(c2c(O)cc3c(c2F)C[C@H](NCC2C4CCCC42)CS3)S(=O)(=O)N1 (mixture of isomers) [Compound 138, 5-[(3S)-3-({[(1RS,5SR)-bicyclo[3.1.0]hexan-6-yl]methyl}amino)-5-fluoro-7-hydroxy-3,4-dihydro-2H-1-benzothiopyran-6-yl]-1λ^6,2,5-thiadiazolidine-1,1,3-trione]
Thiochromane x-fold>potency biochemical ([1]; Table 3): 2.0
IC50 [1, 4]: 10 to 100 nM
Thiochromane x-fold>potency cellular ([3]; Table 3): >33.8

IC50 [2]: < 10 nM
EC50 [3, 5]: 0.164 µM
SMILES: O=C1CN(c2c(O)cc3c(c2F)C[C@H](NCCCC(F)F)CS3)S(=O)(=O)N1 [Compound 100, 5-{(3S)-3-[(4,4-difluorobutyl)amino]-5-fluoro-7-hydroxy-3,4-dihydro-2H-1-benzothiopyran-6-yl}-1λ^6,2,5-thiadiazolidine-1,1,3-trione]
Thiochromane x-fold>potency biochemical ([1]; Table 3): 3.4
IC50 [1, 7]: 2 nM
IC50 [1, 4]: < 10 nM

IC50 [2]: > 100 nM
SMILES: CC(C)(C)OC(=O)N[C@@H]1CSc2cc(O)c(N3CC(=O)NS3(=O)=O)c(F)c2C1 [Compound 101, tert-butyl [(3S)-5-fluoro-7-hydroxy-6-(1,1,4-trioxo-1λ^6,2,5-thiadiazolidin-2-yl)-3,4-dihydro-2H-1-benzothiopyran-3-yl]carbamate]

IC50 [2]: > 100 nM
SMILES: N[C@@H]1CSc2cc(O)c(N3CC(=O)NS3(=O)=O)c(F)c2C1 [Compound 102, 5-[(3S)-3-amino-5-fluoro-7-hydroxy-3,4-dihydro-2H-1-benzothiopyran-6-yl]-1λ^6,2,5-thiadiazolidine-1,1,3-trione]
Thiochromane x-fold>potency biochemical ([1]; Table 3): 1.7
IC50 [1, 7]: 31 nM
IC50 [1, 4]: 10 to 100 nM

IC50 [2]: < 10 nM
EC50 [3, 5]: 0.528 µM
EC50 [3, 6]: 0.528 µM
SMILES: CC(C)CCN[C@@H]1CSc2cc(O)c(N3CC(=O)NS3(=O)=O)c(F)c2C1 [Compound 103, 5-{(3S)-5-fluoro-7-hydroxy-3-[(3-methylbutyl)amino]-3,4-dihydro-2H-1-benzothiopyran-6-yl}-1λ^6,2,5-thiadiazolidine-1,1,3-trione]
Thiochromane x-fold>potency biochemical ([1]; Table 3): 11.9
IC50 [1, 7]: 1 nM
IC50 [1, 4]: < 10 nM
Thiochromane x-fold>potency cellular ([3]; Table 3): 13.2

IC50 [2]: 10 to 100 nM
EC50 [3, 5]: 3.35 µM
SMILES: O=C1CN(c2c(O)cc3c(c2F)C[C@H](NCCC2(CO)CCC2)CS3)S(=O)(=O)N1 [Compound 104, 5-[(3S)-5-fluoro-7-hydroxy-3-({2-[1-(hydroxymethyl)cyclobutyl]ethyl}amino)-3,4-dihydro-2H-1-benzothiopyran-6-yl]-1λ^6,2,5-thiadiazolidine-1,1,3-trione]
IC50 [1, 4]: < 10 nM

EC50 [3, 6]: 5.75 µM
SMILES: N[C@@H]1COc2cc(O)c(N3CC(=O)NS3(=O)=O)c(F)c2C1 [Compound C-2, reference compound]
IC50 [1, 7]: 52 nM

EC50 [3, 6]: 6.96 µM
SMILES: CC(C)CCN[C@@H]1COc2cc(O)c(N3CC(=O)NS3(=O)=O)c(F)c2C1 [Compound C-3, reference compound]
IC50 [1, 7]: 15 nM

EC50 [3, 6]: 32.2 µM
SMILES: O=C1CN(c2c(O)cc3c(c2F)CC(NCCC2CCOCC2)CO3)S(=O)(=O)N1 (stereo not drawn) [Compound C-4, reference compound]

EC50 [3, 6]: 22.6 µM
SMILES: O=C1CN(c2c(O)cc3c(c2F)CC(NCCC2CCOC2)CO3)S(=O)(=O)N1 (stereo not drawn) [Compound C-5, reference compound]

EC50 [3, 6]: > 50 µM
SMILES: O=C1CN(c2c(O)cc3c(c2F)CC(NCC2(CF)CC2)CO3)S(=O)(=O)N1 (stereo not drawn) [Compound C-6, reference compound]

EC50 [3, 6]: > 50 µM
SMILES: O=C1CN(c2c(O)cc3c(c2F)CC(NCC2CC(c4ccccc4)C2)CO3)S(=O)(=O)N1 (stereo not drawn) [Compound C-7, reference compound]

EC50 [3, 6]: > 50 µM
SMILES: O=C1CN(c2c(O)cc3c(c2F)CC(NCCCc2ccccc2)CO3)S(=O)(=O)N1 (stereo not drawn) [Compound C-8, reference compound]

EC50 [3, 6]: > 50 µM
SMILES: O=C1CN(c2c(O)cc3c(c2F)CC(NCC2C4CCCC42)CO3)S(=O)(=O)N1 (stereo not drawn) [Compound C-10, reference compound]

EC50 [3, 6]: > 50 µM
SMILES: O=C1CN(c2c(O)cc3c(c2F)CC(NCC2CCC(C(F)(F)F)CC2)CO3)S(=O)(=O)N1 (stereo not drawn) [Compound C-11, reference compound]

EC50 [3, 6]: > 50 µM
SMILES: CC1=C(CCNC2COc3cc(O)c(N4CC(=O)NS4(=O)=O)c(F)c3C2)C(C)(C)CCC1 (stereo not drawn) [Compound C-12, reference compound]

EC50 [3, 6]: > 50 µM
SMILES: CC(C)(C)OC(=O)N1CCC(CNC2COc3cc(O)c(N4CC(=O)NS4(=O)=O)c(F)c3C2)CC1 (stereo not drawn) [Compound C-13, reference compound]
